pIC50: −log10 of the molar value. “And” between values parts separate entries of the source, which are not always exact repeats. Identical values can stand only once. Like-named read-outs stand apart in the source and are kept apart here.
What was measured:
[1] = Stability of SDC-TRAPs in mouse plasma; format: in vitro ADME; settings: 37° C.
Experimental: SDC-TRAPs were incubated in mouse plasma for 1 h at 37° C. and assayed for integrity at 0, 0.25, 0.5 and 1 h to assess the stability of the SDC-TRAP, e.g., as compared to the effector and targeting compounds. Compound stability was determined using […].

HER2 = HER2 degradation assay with BT-474 cell line; format: cell-based, human; settings: BT-474 cells, overnight incubation
Experimental: BT-474 cells (human breast cancer cell line ATCC HTB-20) were obtained from ATCC and seeded into 12-well tissue culture plates at 0.2×10^6/1.8 mL/well. The cells were incubated for more than 6 hours at 37° C. in DMEM+10% FBS, +1% P/S, +1.5 g/L sodium bicarbonate. […] The DMSO final concentration was 0.2%. Cells were incubated overnight at 37° C. in 5% CO2.
Media was decanted from the plate, cells were washed 1× in PBS. 400 μL trypsin (EDTA) per well was added, and the cells were incubated for 2 to 3 minutes. Cells were collected into FACS tubes containing 1 ml culture medium to neutralize the trypsin and were centrifuged for 5 minutes at 1200 rpm. Supernatant was decanted and the cells were resuspended in 5 μL FITC (anti HER2/nu)/200 μL staining buffer (1×PBS+1% FBS+0.05% Sodium Azide)/tube. Controls were 5 μL IgG isotype control and staining buffer only. Tubes were incubated for 30 minutes in the dark at room temperature. 1 mL staining buffer was added to each tube and the tubes were centrifuged for 6 minutes at 1200 rpm. The supernatant was decanted and 300 μL staining buffer was added to each tube, which was stored at 4° C. for FACS (cytometer) analysis. The cytometer readout was normalized and the potency of each compound was evaluated with IC50 calculated with XLfit™ software.

[2] = Tissue distribution of ganetespib in female CD-1 nu/nu mice bearing RERF human NSCLC xenografts; format: in vivo; settings: IV 50 mg/kg; for concentration at 5 min / concentration at 24 h / concentration at 6 h: female, CD-1 nu/nu, mouse
Excerpt: To confirm the distribution of ganetespib in blood, livers, kidneys, brains, hearts, lungs and tumors after IV administration of ganetespib to female CD-1 nu/nu mice bearing RERF human NSCLC xenografts, and to examine metabolic profiles of ganetespib in plasma, red blood cells, and above tissues.
Test Articles: ganetespib
Animals: female CD-1 nu/nu mice bearing RERF human NSCLC xenografts (N=3/group)
Formulation: 10% DMSO, 18% Cremophor RH40, 3.6% dextrose solution (DRD)
Bleeding time points: 5 min, 6, 24 hr
Collected tissues: blood (plasma and red blood cells (RBC)), liver, kidneys, brain, heart, lung, tumor
Protein precipitation: 50 μL of 10 times diluted plasma or RBC+150 μL ACN (10 mM NH4OAc), vortexed and centrifuged at 10000 rpm for 8 min; 150 μL supernatant+150 μL water (10 mM NH4OAc)
Protein precipitation: 100 μL homogenized tissue (1:3 tissue: PBS buffer)+100 μL ACN (10 mM NH4OAc), vortexed and centrifuged at 10000 rpm for 8 min

For `CCNC(=O)c1nnc(-c2cc(C(C)C)c(O)cc2O)n1-c1ccc(Oc2ccc(C(=O)N3CCC4(CC3)OB([C@H](CC(C)C)NC(=O)[C@H](Cc3ccccc3)NC(=O)c3cnccn3)OC4(C)C)cc2)cc1` [SDC-TRAP-0249, N—((S)-1-(((R)-1-(8-(4-(4-(3-(2,4-dihydroxy-5-isopropylphenyl)-5-(ethylcarbamoyl)-4H-1,2,4-triazol-4-yl)phenoxy)benzoyl)-4,4-dimethyl-1,3-dioxa-8-aza-2-boraspiro[4.5]decan-2-yl)-3-methylbutyl)amino)-1-oxo-3-phenylpropan-2-yl)pyrazine-2-carboxamide], the “% Remaining (1 h)” value [1] was 8.93% and the pIC50 (HER2) was 7.44.
With `CC(C)C[C@H](NC(=O)[C@H](Cc1ccccc1)NC(=O)c1cnccn1)B1OC(C)(C)C(C)(c2ccc(C(=O)N3CCC(COc4ccc(-n5c(O)nnc5-c5cc(C(C)C)c(O)cc5O)cc4)CC3)cc2)O1` (stereo partly drawn) [SDC-TRAP-0242, N-((2S)-1-(((1R)-1-(4-(4-(4-((4-(3-(2,4-dihydroxy-5-isopropylphenyl)-5-hydroxy-4H-1,2,4-triazol-4-yl)phenoxy)methyl)piperidine-1-carbonyl)phenyl)-4,5,5-trimethyl-1,3,2-dioxaborolan-2-yl)-3-methylbutyl)amino)-1-oxo-3-phenylpropan-2-yl)pyrazine-2-carboxamide] the pIC50 (HER2) was 6.39.
In the case of `CCNC(=O)c1nnc(-c2cc(C(C)C)c(O)cc2O)n1-c1ccc2c(ccn2CCC2CCN(C(=O)c3ccc(C4(C)OB([C@H](CC(C)C)NC(=O)[C@H](Cc5ccccc5)NC(=O)c5cnccn5)OC4(C)C)cc3)CC2)c1` (stereo partly drawn) [SDC-TRAP-0240, N-((2S)-1-(((1R)-1-(4-(4-(4-(2-(5-(3-(2,4-dihydroxy-5-isopropylphenyl)-5-(ethylcarbamoyl)-4H-1,2,4-triazol-4-yl)-1H-indol-1-yl)ethyl)piperidine-1-carbonyl)phenyl)-4,5,5-trimethyl-1,3,2-dioxaborolan-2-yl)-3-methylbutyl)amino)-1-oxo-3-phenylpropan-2-yl)pyrazine-2-carboxamide], the “% Remaining (1 h)” value [1] was 84.0% and the pIC50 (HER2) was under 5.30.
With `CCNC(=O)c1nnc(-c2cc(C(C)C)c(O)cc2O)n1-c1ccc(Oc2ccc(C(=O)NCC[C@]34OB([C@H](CC(C)C)NC(=O)[C@H](Cc5ccccc5)NC(=O)c5cnccn5)O[C@H]3C[C@@H]3C[C@H]4C3(C)C)cc2)cc1` [SDC-TRAP-0248, N—((S)-1-(((R)-1-((3aR,4S,6S,7aS)-3a-(2-(4-(4-(3-(2,4-dihydroxy-5-isopropylphenyl)-5-(ethylcarbamoyl)-4H-1,2,4-triazol-4-yl)phenoxy)benzamido)ethyl)-5,5-dimethylhexahydro-4,6-methanobenzo[d][1,3,2]dioxaborol-2-yl)-3-methylbutyl)amino)-1-oxo-3-phenylpropan-2-yl)pyrazine-2-carboxamide] the “% Remaining (1 h)” value [1] was 54.8% and the pIC50 (HER2) was 7.43.
In the case of `CC(C)C[C@H](NC(=O)[C@H](Cc1ccccc1)NC(=O)c1cnccn1)B1OC(C)(C)C2(CCN(C(=O)CCn3ccc4cc(-n5c(O)nnc5-c5cc(C(C)C)c(O)cc5O)ccc43)CC2)O1` [SDC-TRAP-0250, N—((S)-1-(((R)-1-(8-(3-(5-(3-(2,4-dihydroxy-5-isopropylphenyl)-5-hydroxy-4H-1,2,4-triazol-4-yl)-1H-indol-1-yl)propanoyl)-4,4-dimethyl-1,3-dioxa-8-aza-2-boraspiro[4.5]decan-2-yl)-3-methylbutyl)amino)-1-oxo-3-phenylpropan-2-yl)pyrazine-2-carboxamide], the “% Remaining (1 h)” value [1] was 27.0% and the pIC50 (HER2) was 5.67.
With `CC(C)c1cc(-c2n[nH]c(=O)n2-c2ccc3c(ccn3C)c2)c(O)cc1O` [ganetespib] the “Mean concentration in plasma relative to that in RBC” value ([2]; 5 min) was “about 10 times”, the Concentration in tumor ([2]; 5 min, tumor) was 2350 nM and the Concentration in plasma ([2]; 24 hr, plasma) was “<LLOQ”. For the same molecule, the concentration at 5 min ([2]; red blood cells, 5 min, RBC, read-out: Concentration in RBC) was 6000 ng/mL and 16.5 µM, the concentration at 24 h ([2]; red blood cells, 24 hr, RBC, read-out: Concentration in RBC) was 3 ng/mL and 7 nM and the concentration at 5 min ([2]; 5 min, brain, read-out: Concentration in brain) was 530 nM and 190 ng/g. The concentration at 5 min ([2]; 5 min, heart, read-out: Concentration in heart) was 36.2 µM and 13200 ng/g, the concentration at 5 min ([2]; 5 min, kidneys, read-out: Concentration in kidneys) was 57.8 µM and 21100 ng/g and the concentration at 5 min ([2]; 5 min, liver, read-out: Concentration in liver) was 46.3 µM and 16900 ng/g. For the same molecule, the concentration at 5 min ([2]; 5 min, lung, read-out: Concentration in lung) was 9240 ng/g and 25.4 µM, the concentration at 5 min ([2]; 5 min, plasma, read-out: Concentration in plasma) was 160 µM and 58400 ng/mL and the concentration at 5 min ([2]; 5 min, tumor, read-out: Concentration in tumor) was 860 ng/g and 2.35 µM. The concentration at 6 h ([2]; brain, read-out: Concentration in brain) was 70 ng/g and 180 nM, the concentration at 6 h ([2]; heart, read-out: Concentration in heart) was 50 ng/g and 130 nM and the concentration at 6 h ([2]; kidneys, read-out: Concentration in kidneys) was 60 ng/g and 150 nM. The concentration at 6 h ([2]; liver, read-out: Concentration in liver) was 140 ng/g and 390 nM, the concentration at 6 h ([2]; lung, read-out: Concentration in lung) was 50 ng/g and 140 nM and the concentration at 6 h ([2]; plasma, read-out: Concentration in plasma) was 120 nM and 40 ng/mL. For the same molecule, the concentration at 6 h ([2]; tumor, read-out: Concentration in tumor) was 290 ng/g and 800 nM, the concentration at 24 h ([2]; 24 hr, brain, read-out: Concentration in brain) was 40 ng/g and 120 nM and the concentration at 24 h ([2]; 24 hr, heart, read-out: Concentration in heart) was 0 ng/g and 0 nM. The concentration at 24 h ([2]; 24 hr, kidneys, read-out: Concentration in kidneys) was 10 ng/g and 20 nM, the concentration at 24 h ([2]; 24 hr, liver, read-out: Concentration in liver) was 5 ng/g and 10 nM and the concentration at 24 h ([2]; 24 hr, lung, read-out: Concentration in lung) was 0 ng/g and 5 nM. The concentration at 24 h ([2]; 24 hr, plasma, read-out: Plasma concentration (below the lower limit of quantitation)) was under 2.5 nM and the concentration at 24 h ([2]; 24 hr, tumor, read-out: Concentration in tumor) was 850 nM and 310 ng/g.
With `CC(C)C[C@H](NC(=O)[C@H](Cc1ccccc1)NC(=O)c1cnccn1)B1OC(C)(C)C(C)(c2ccc(C(=O)N3CCc4ccc(-n5c(O)nnc5-c5cc(C(C)C)c(O)cc5O)cc4C3)cc2)O1` (stereo partly drawn) [SDC-TRAP-0239, N-((2S)-1-(((1R)-1-(4-(4-(7-(3-(2,4-dihydroxy-5-isopropylphenyl)-5-hydroxy-4H-1,2,4-triazol-4-yl)-1,2,3,4-tetrahydroisoquinoline-2-carbonyl)phenyl)-4,5,5-trimethyl-1,3,2-dioxaborolan-2-yl)-3-methylbutyl)amino)-1-oxo-3-phenylpropan-2-yl)pyrazine-2-carboxamide] the “% Remaining (1 h)” value [1] was 35.8% and the pIC50 (HER2) was under 5.30.
With `CC(C)C[C@H](NC(=O)[C@H](Cc1ccccc1)NC(=O)c1cnccn1)B1O[C@H]2C[C@H]3C[C@H](C3(C)C)[C@@]2(CC(=O)N2CCC(CCn3ccc4cc(-n5c(O)nnc5-c5cc(C(C)C)c(O)cc5O)ccc43)CC2)O1` [SDC-TRAP-0245, N—((S)-1-(((R)-1-((3aR,4R,6R,7aS)-3a-(2-(4-(2-(5-(3-(2,4-dihydroxy-5-isopropylphenyl)-5-hydroxy-4H-1,2,4-triazol-4-yl)-1H-indol-1-yl)ethyl)piperidin-1-yl)-2-oxoethyl)-5,5-dimethylhexahydro-4,6-methanobenzo[d][1,3,2]dioxaborol-2-yl)-3-methylbutyl)amino)-1-oxo-3-phenylpropan-2-yl)pyrazine-2-carboxamide] the “% Remaining (1 h)” value [1] was 44.2%.
With `CCNC(=O)c1nnc(-c2cc(C(C)C)c(O)cc2O)n1-c1ccc(CN2CCC(C(=O)N3CCC4(CC3)OB([C@H](CC(C)C)NC(=O)[C@H](Cc3ccccc3)NC(=O)c3cnccn3)OC4(C)C)CC2)cc1` [SDC-TRAP-0252, N—((S)-1-(((R)-1-(8-(1-(4-(3-(2,4-dihydroxy-5-isopropylphenyl)-5-(ethylcarbamoyl)-4H-1,2,4-triazol-4-yl)benzyl)piperidine-4-carbonyl)-4,4-dimethyl-1,3-dioxa-8-aza-2-boraspiro[4.5]decan-2-yl)-3-methylbutyl)amino)-1-oxo-3-phenylpropan-2-yl)pyrazine-2-carboxamide] the “% Remaining (1 h)” value [1] was 34%.

Source: patent US10117944B2, “Targeted therapeutics” (Madrigal Pharmaceuticals, Inc., priority 2014, dated 2018)
